ChEMBL document CHEMBL4406902, “Structure-based analysis and biological characterization of imatinib derivatives reveal insights towards the inhibition of wild-type BCR-ABL and its mutants” (Bioorg Med Chem Lett, 2019)
pIC50: −log10 of the molar value.

Tests used:
[1] = Inhibition of BCR/Abl P190 mutant (unknown origin) transfected in mouse Ba/F3 cells assessed as inhibition of cell proliferation measured after 72 hrs by CellTiter-Glo luminescent cell viability assay; format: cell-based; conditions: BaF3, 72 h
[2] = Inhibition of BCR/Abl P230 mutant (unknown origin) transfected in mouse Ba/F3 cells assessed as inhibition of cell proliferation measured after 72 hrs by CellTiter-Glo luminescent cell viability assay; format: cell-based; conditions: BaF3, 72 h

**Q.** With `Cc1ncc(NC(=O)c2ccc(CN3CCN(C)CC3)c(C(F)(F)F)c2)cc1Nc1nccc(-c2cccnc2)n1` [FLUMATINIB] as the molecule, how does the pIC50 [1] read?
**A.** 7.88

**Q.** What about the pIC50 [2] of the same molecule?
**A.** 7.99

**Q.** With `Cc1cn(-c2cc(NC(=O)c3ccc(C)c(Nc4nccc(-c5cccnc5)n4)c3)cc(C(F)(F)F)c2)cn1` [NILOTINIB] as the molecule, how does the pIC50 [1] read?
**A.** 7.63

**Q.** And the pIC50 [2]?
**A.** 7.72

**Q.** With `Cc1ccc(NC(=O)c2ccc(CN3CCN(C)CC3)cc2)cc1Nc1nccc(-c2cccnc2)n1` [IMATINIB] as the molecule, how does the pIC50 [1] read?
**A.** 6.46

**Q.** What about the pIC50 [2] of the same molecule?
**A.** 6.65
